PMC12221116, “Novel Quinazolinones Active against Multidrug‐Resistant Mycobacterium Tuberculosis: Synthesis, Antimicrobial Evaluation, and in Silico Exploration of Penicillin‐Binding Protein 1A as a Potential Target” (Chemmedchem, 2025)
Values after ≈ are worked out from the molar mass of the structure shown. Like-named read-outs stand apart in the source and are kept apart here.

How the values were obtained:
Assay in all cases: microbe, parasite or virus in culture
Type in all cases: cell-based, Mycobacterium tuberculosis
Mtb IZAK [1] = conditions: for MIC: Mycobacterium tuberculosis, read-out: MIC Mtb IZAK
Mtb TIAS [2] = conditions: for MIC: Mycobacterium tuberculosis, read-out: MIC Mtb TIAS
Mtb SORO [3] = conditions: for MIC: Mycobacterium tuberculosis, read-out: MIC Mtb SORO
Mtb TURZ [4] = conditions: for MIC: Mycobacterium tuberculosis, read-out: MIC Mtb TURZ
Mtb MATI [5] = conditions: for MIC: Mycobacterium tuberculosis, read-out: MIC Mtb MATI
Mtb YAGY [6] = conditions: for MIC: Mycobacterium tuberculosis, read-out: MIC Mtb YAGY
Mtb TURZ [7] = conditions: for Susceptible/resistant Mtb TURZ: CLSI methodology; for MIC: Mycobacterium tuberculosis, read-out: MIC, susceptibility pattern Mtb TURZ
Mtb SORO [8] = conditions: for Susceptible/resistant Mtb SORO: CLSI methodology; for MIC: Mycobacterium tuberculosis, read-out: MIC, susceptibility pattern Mtb SORO
Mtb YAGY [9] = conditions: for Susceptible/resistant Mtb YAGY: CLSI methodology; for MIC: Mycobacterium tuberculosis, read-out: MIC, susceptibility pattern Mtb YAGY
Mtb MATI [10] = conditions: for Susceptible/resistant Mtb MATI: CLSI methodology; for MIC: Mycobacterium tuberculosis, read-out: MIC, susceptibility pattern Mtb MATI
Mtb TIAS [11] = conditions: for Susceptible/resistant Mtb TIAS: CLSI methodology; for MIC: Mycobacterium tuberculosis, read-out: MIC, susceptibility pattern Mtb TIAS
Mtb IZAK [12] = conditions: for Susceptible/resistant Mtb IZAK: CLSI methodology; for MIC: Mycobacterium tuberculosis, read-out: MIC, susceptibility pattern Mtb IZAK
[13] = drug-resistant clinical isolate
[14] = mycobacteria growth indicator tube (MGIT), concentration 100 mg/l

Cc1nc2ccccc2c(=O)n1Cc1cccc(Cl)c1 [Compound 6]
MIC Mtb IZAK (Mtb IZAK [1]; [13]): >100 µg/mL
MIC Mtb TIAS (Mtb TIAS [2]; [13]): 25 µg/mL (≈ 87.8 µM)
MIC Mtb SORO (Mtb SORO [3]; [13]): 25 µg/mL (≈ 87.8 µM)
MIC Mtb TURZ (Mtb TURZ [4]; [13]): 25 µg/mL (≈ 87.8 µM)
MIC Mtb MATI (Mtb MATI [5]; [13]): 50 µg/mL (≈ 176 µM)
MIC Mtb YAGY (Mtb YAGY [6]; [13]): 12.5 µg/mL (≈ 43.9 µM)

COc1ccc(Cn2c(C)nc3cc(Cl)ccc3c2=O)cc1 [Compound 17]
MIC (Mtb IZAK [1]): 12.5 µg/mL (≈ 39.7 µM)
MIC (Mtb TIAS [2]): 12.5 µg/mL (≈ 39.7 µM)
MIC (Mtb SORO [3]): 12.5 µg/mL (≈ 39.7 µM)
MIC (Mtb TURZ [4]): 12.5 µg/mL (≈ 39.7 µM)
MIC (Mtb MATI [5]): 12.5 µg/mL (≈ 39.7 µM)
MIC (Mtb YAGY [6]): 12.5 µg/mL (≈ 39.7 µM)

Cc1nc2cc(Cl)ccc2c(=O)n1Cc1ccc(F)cc1 [Compound 19]
MIC (Mtb IZAK [1]): > 50 µg/mL
MIC (Mtb TIAS [2]): 12.5 µg/mL (≈ 41.3 µM)
MIC (Mtb SORO [3]): > 50 µg/mL
MIC (Mtb TURZ [4]): 12.5 µg/mL (≈ 41.3 µM)
MIC (Mtb MATI [5]): > 50 µg/mL
MIC (Mtb YAGY [6]): 12.5 µg/mL (≈ 41.3 µM)

Cc1nc2cc(Cl)ccc2c(=O)n1Cc1cccc(Cl)c1 [Compound 21]
MIC (Mtb IZAK [1]): > 100 µg/mL
MIC (Mtb TIAS [2]): 12.5 µg/mL (≈ 39.2 µM)
MIC (Mtb SORO [3]): > 100 µg/mL
MIC (Mtb TURZ [4]): 12.5 µg/mL (≈ 39.2 µM)
MIC (Mtb MATI [5]): > 100 µg/mL
MIC (Mtb YAGY [6]): 12.5 µg/mL (≈ 39.2 µM)

Cc1nc2cc(Cl)ccc2c(=O)n1Cc1ccc(Cl)c(Cl)c1 [Compound 24]
MIC (Mtb IZAK [1]): > 100 µg/mL
MIC (Mtb TIAS [2]): 6.25 µg/mL (≈ 17.7 µM)
MIC (Mtb SORO [3]): 100 µg/mL (≈ 283 µM)
MIC (Mtb TURZ [4]): 6.25 µg/mL (≈ 17.7 µM)
MIC (Mtb MATI [5]): > 100 µg/mL
MIC (Mtb YAGY [6]): 6.25 µg/mL (≈ 17.7 µM)

Cc1nc2cc(Cl)ccc2c(=O)n1/N=C/c1ccc(O)c([N+](=O)[O-])c1 [Compound 25]
MIC (Mtb IZAK [1]): > 25 µg/mL
MIC (Mtb TIAS [2]): 25 µg/mL (≈ 69.7 µM)
MIC (Mtb SORO [3]): 12.5 µg/mL (≈ 34.8 µM)
MIC (Mtb TURZ [4]): 25 µg/mL (≈ 69.7 µM)
MIC (Mtb MATI [5]): 12.5 µg/mL (≈ 34.8 µM)
MIC (Mtb YAGY [6]): 6.25 µg/mL (≈ 17.4 µM)

NNC(=O)c1ccncc1 [INH, isoniazid, reference compound]
MIC (Mtb IZAK [1]): > 100 µg/mL
MIC (Mtb TIAS [2]): > 100 µg/mL
Susceptible/resistant Mtb TURZ (Mtb TURZ [7]): R
MIC (Mtb TURZ [7]): > 8 µg/mL
Susceptible/resistant Mtb SORO (Mtb SORO [8]): R
MIC (Mtb SORO [8]): 4 µg/mL (≈ 29.2 µM)
MIC (Mtb SORO [3]): > 100 µg/mL
MIC (Mtb TURZ [4]): > 100 µg/mL
Susceptible/resistant Mtb YAGY (Mtb YAGY [9]): R
MIC (Mtb YAGY [9]): 4 µg/mL (≈ 29.2 µM)
Susceptible/resistant Mtb MATI (Mtb MATI [10]): R
MIC (Mtb MATI [10]): > 8 µg/mL
MIC (Mtb MATI [5]): > 100 µg/mL
Susceptible/resistant Mtb TIAS (Mtb TIAS [11]): R
MIC (Mtb TIAS [11]): > 8 µg/mL
MIC (Mtb YAGY [6]): > 100 µg/mL
Susceptible/resistant Mtb IZAK (Mtb IZAK [12]): R
MIC (Mtb IZAK [12]): 4 µg/mL (≈ 29.2 µM)

CO[C@H]1/C=C/O[C@@]2(C)Oc3c(C)c(O)c4c(O)c(c(/C=N/N5CCN(C)CC5)c(O)c4c3C2=O)NC(=O)/C(C)=C\C=C\[C@H](C)[C@H](O)[C@@H](C)[C@@H](O)[C@@H](C)[C@H](OC(C)=O)[C@@H]1C [RIF, rifampicin]
Susceptible/resistant Mtb TURZ (Mtb TURZ [7]): R
MIC (Mtb TURZ [7]): > 8 µg/mL
Susceptible/resistant Mtb SORO (Mtb SORO [8]): S
MIC (Mtb SORO [8]): 0.125 µg/mL (≈ 0.152 µM)
Susceptible/resistant Mtb YAGY (Mtb YAGY [9]): R
MIC (Mtb YAGY [9]): 8 µg/mL (≈ 9.72 µM)
Susceptible/resistant Mtb MATI (Mtb MATI [10]): R
MIC (Mtb MATI [10]): > 8 µg/mL
Susceptible/resistant Mtb TIAS (Mtb TIAS [11]): S
MIC (Mtb TIAS [11]): 0.125 µg/mL (≈ 0.152 µM)
Susceptible/resistant Mtb IZAK (Mtb IZAK [12]): R
MIC (Mtb IZAK [12]): > 8 µg/mL

NCC[C@H](O)C(=O)N[C@@H]1C[C@H](N)[C@@H](O[C@H]2O[C@H](CN)[C@@H](O)[C@H](O)[C@H]2O)[C@H](O)[C@H]1O[C@H]1O[C@H](CO)[C@@H](O)[C@H](N)[C@H]1O [amikacin]
Susceptible/resistant Mtb TURZ (Mtb TURZ [7]): S
MIC (Mtb TURZ [7]): 0.5 µg/mL (≈ 0.854 µM)
Susceptible/resistant Mtb SORO (Mtb SORO [8]): S
MIC (Mtb SORO [8]): 1 µg/mL (≈ 1.71 µM)
Susceptible/resistant Mtb YAGY (Mtb YAGY [9]): R
MIC (Mtb YAGY [9]): > 64 µg/mL
Susceptible/resistant Mtb TIAS (Mtb TIAS [11]): S
MIC (Mtb TIAS [11]): 1 µg/mL (≈ 1.71 µM)

CC(C)/N=c1\cc2n(-c3ccc(Cl)cc3)c3ccccc3nc-2cc1Nc1ccc(Cl)cc1 [clofazimine]
Susceptible/resistant Mtb SORO (Mtb SORO [8]): S
MIC (Mtb SORO [8]): 0.25 µg/mL (≈ 0.528 µM)

CC[C@@H](CO)NCCN[C@@H](CC)CO [ethambutol]
Susceptible/resistant Mtb TURZ (Mtb TURZ [7]): R
MIC (Mtb TURZ [7]): 1 µg/mL (≈ 4.89 µM)
Susceptible/resistant Mtb SORO (Mtb SORO [8]): R
MIC (Mtb SORO [8]): 2 µg/mL (≈ 9.79 µM)
Susceptible/resistant Mtb YAGY (Mtb YAGY [9]): R
MIC (Mtb YAGY [9]): 4 µg/mL (≈ 19.6 µM)
Susceptible/resistant Mtb MATI (Mtb MATI [10]): S
MIC (Mtb MATI [10]): 0.5 µg/mL (≈ 2.45 µM)
Susceptible/resistant Mtb TIAS (Mtb TIAS [11]): R
MIC (Mtb TIAS [11]): 1 µg/mL (≈ 4.89 µM)
Susceptible/resistant Mtb IZAK (Mtb IZAK [12]): S
MIC (Mtb IZAK [12]): 0.5 µg/mL (≈ 2.45 µM)

COc1c(N2C[C@@H]3CCCN[C@@H]3C2)c(F)cc2c(=O)c(C(=O)O)cn(C3CC3)c12 [moxifloxacin]
Susceptible/resistant Mtb TURZ (Mtb TURZ [7]): S
MIC (Mtb TURZ [7]): 0.25 µg/mL (≈ 0.623 µM)
Susceptible/resistant Mtb SORO (Mtb SORO [8]): S
MIC (Mtb SORO [8]): 0.25 µg/mL (≈ 0.623 µM)
Susceptible/resistant Mtb YAGY (Mtb YAGY [9]): S
MIC (Mtb YAGY [9]): 0.25 µg/mL (≈ 0.623 µM)
Susceptible/resistant Mtb TIAS (Mtb TIAS [11]): S
MIC (Mtb TIAS [11]): 0.25 µg/mL (≈ 0.623 µM)

NC(=O)c1cnccn1 [pyrazinamide]
Susceptible/resistant Mtb TURZ (MGIT) (Mtb TURZ [7]; [14]): S ^b)
Susceptible/resistant Mtb SORO (MGIT) (Mtb SORO [8]; [14]): S ^b)
Susceptible/resistant Mtb YAGY (MGIT) (Mtb YAGY [9]; [14]): R ^b)
Susceptible/resistant Mtb MATI (Mtb MATI [10]): R
MIC (Mtb MATI [10]): > 128 µg/mL
Susceptible/resistant Mtb TIAS (MGIT) (Mtb TIAS [11]; [14]): S ^b)
Susceptible/resistant Mtb IZAK (Mtb IZAK [12]): R
MIC (Mtb IZAK [12]): > 16 µg/mL

[H]/N=C(/N)N[C@H]1[C@H](O)[C@@H](O)[C@H](O[C@@H]2O[C@@H](C)[C@](O)(C=O)[C@H]2O[C@@H]2O[C@@H](CO)[C@H](O)[C@@H](O)[C@@H]2NC)[C@@H](N/C(N)=N\[H])[C@@H]1O [streptomycin]
Susceptible/resistant Mtb TURZ (Mtb TURZ [7]): R
MIC (Mtb TURZ [7]): 16 µg/mL (≈ 27.5 µM)
Susceptible/resistant Mtb SORO (Mtb SORO [8]): R
MIC (Mtb SORO [8]): 4 µg/mL (≈ 6.88 µM)
Susceptible/resistant Mtb YAGY (Mtb YAGY [9]): R
MIC (Mtb YAGY [9]): > 16 µg/mL
Susceptible/resistant Mtb MATI (Mtb MATI [10]): R
MIC (Mtb MATI [10]): > 16 µg/mL
Susceptible/resistant Mtb TIAS (Mtb TIAS [11]): R
MIC (Mtb TIAS [11]): 4 µg/mL (≈ 6.88 µM)
Susceptible/resistant Mtb IZAK (Mtb IZAK [12]): R
MIC (Mtb IZAK [12]): 4 µg/mL (≈ 6.88 µM)
